Legend:
[1] = system: 4T1.2 mammary carcinoma cells; assay: 4T1.2 mammary carcinoma mouse model of breast cancer metastasis; format: in vivo, BALB/c mice; conditions: 25 mg/kg/day oral, day 3 to day 12
[2] = molecular target: full-length mouse SOX18 (Mus musculus (Mouse), UniProt P43680); assay: FP DNA-binding competition assay, full-length SOX18; conditions: full-length mouse SOX18, Prox1-DNA probe, read-out: FP IC50 ± SD
Experimental: Full-length mouse SOX18. A N-terminally tagged mouse HIS-GST-SOX18 was recombinantly expressed in Sf9 cells, purified on GST resin (GE Healthcare Life Sciences, Sweden) and eluted in Tris buffer (50 mM Tris, 500 mM NaCl, 10 mM reduced glutathione, pH 8.0). cDNA clone of mouse Sox18 was PCR amplified and cloned into the pOPIN-GST vector, to generate N-terminally tagged HIS-GST-SOX18. A sequence verified construct was co-transfected with flashBACULTRA (Oxford Expression Technologies, Oxford, United Kingdom) baculovirus DNA onto Spodoptera frugiperda Sf9 cells to obtain recombinantly expressed HIS-GST-SOX18. High Five cells (BTI-TN-5B1-4) in Sf-900™ II serum-free medium were infected at cell density of 1.5×10^6 cells/mL with a multiplicity of infection (MOI) of 5 PFU/cell, and incubated at 21° C. for 144 h before harvest. The cell pellet from 100 mL of expression culture was resuspended in 30 mL of phosphate lysis buffer (50 mM sodium phosphate, 500 mM sodium chloride, 1% Triton X-100, 2 mM magnesium chloride, one tablet of cOmplete Protease Inhibitor Cocktail, pH 7.5) and sonicated on ice for 20 s. The cell lysate was centrifuged at 17,000×g for 40 min at 4° C. Supernatant was incubated with Benzonase Nuclease (Merck Millipore) for 1 h at room temperature for DNA degradation, before being mixed with 500 μL GST resin (GE Healthcare Life Sciences, Sweden) and incubated on a rotating wheel at room temperature for 1 h. The sample was centrifuged at 500×g for 1 min to remove unbound protein in the supernatant. The resin was further washed with 50 resin volumes (RV) wash buffer (50 mM sodium phosphate, 500 mM NaCl, pH 7.5), with unbound protein removed by centrifugation as above. Bound protein was eluted from the resin with 3×1 RV elution buffer (50 mM Tris, 500 mM NaCl, 10 mM reduced glutathione, pH 8.0), collecting the supernatant by centrifugation as above.
The DNA-binding competition assay was performed in black 384-well plates, with mouse full length SOX18, or SOX-HMG fragments. All experiments were performed using a fluorescently-labelled Prox1-DNA element. Controls consisted of free labelled DNA (low FP milli-Polarization index, mP), labelled DNA in presence of protein (negative control, high mP), and labelled DNA and protein in presence of competing excess of unlabelled DNA (positive control, low mP)
The DNA-binding competition assay was performed in 25 uL, in black 384-well plates, using either 30 mM HEPES (N-2-Hydroxyethylpiperazine-N′-2-Ethanesulfonic Acid) (pH 7.5, with 100 mM KCl, 40 mM NaCl, 10 mM NH4OAc, […], 2 mM MgCl2, 0.5 mM EDTA, 0.01% NP-40) for mouse full length SOX18, or Tris-NaCl (10 mM Tris pH 8.0 and 100 mM NaCl) for SOX-HMG fragments. All experiments were performed using a 40 bp double-stranded Prox1-DNA element with 5′ fluorescein amidite (FAM) label (Sigma Proligo or InVitrogen). Optimum binding levels were obtained at 200 nM of mouse full length SOX18 and 60 nM of SOX-HMG fragment, in presence of 5 nM labelled DNA. Controls consisted of free labelled DNA (low FP milli-Polarization index, mP), labelled DNA in presence of protein (negative control, high mP), and labelled DNA and protein in presence of 400 time competing excess of unlabelled DNA (positive control, low mP). Depending on compound, final DMSO concentrations ranged from 2 to 3.33% v/v. After mixing protein, DNA probe and compound, plates were sealed and briskly agitated in the dark for 5 minutes at room temperature, 10 minutes at 37° C., and 30 minutes at room temperature, before reading fluorescence polarization on a Tecan M1000Pro (λexc=485 nm, λem=525 nm). All experiments were performed in triplicates.

[3] = Cytotoxicity assay (Alamar blue), COS-7; format: cell-based, Monkey; conditions: chlorocebus aethiops, COS-7 cells; COS7, 24 h; read-out: In vitro cytotoxicity CC50 ± SD COS7
Experimental: Cell toxicity was determined using Alamar blue, as previously described (McMillian et al., 2002). COS-7 cells were seeded as 7000 cells per well in black wall clear bottom 96-well plates in DMEM medium (Life Technologies Australia) with 10% FBS. HepG2 and HEK293 cell lines, from ATCC, were seeded as 5000 cells per well in black wall clear bottom 384-well cell culture plates in DMEM with 1% FBS. Cells were cultured for 24 h at 37° C., 5% CO2. A serial dilution of compounds was added, with a final DMSO concentration adjusted to 0.5% v/v. Cells were incubated for another 24 h. 1 Triton X-100 was used as negative control, and 0.5% DMSO as positive control. 5 μM Alamar blue was added to each well and fluorescence was measured (λexc=560 nm, λem=590 nm) after 2 h incubation at 37° C. Data were analysed using Prism software.

[4] = molecular target: SOX18 (Mus musculus (Mouse), UniProt P43680); assay: Cell-based luciferase SOX18-dependent transactivation (Vcam1 promoter) in COS-7; conditions: COS7, 24 h, read-out: In vitro efficacy in cell IC50 ± SD COS7 (Luc)
Experimental: Monkey kidney fibroblast-like cells (COS-7) were cultured at 37° C., 5% CO2 in DMEM (Life technologies, 11995) with FBS, sodium pyruvate, L-glutamine, penicillin, streptomycin, non-essential amino acids and HEPES. Cells were grown in 96-well plates to 80% confluency, and transfected with mouse plasmids pGL2 Vcam 1 promoter construct (VC1889) and pSG5 Sox18, using X-tremeGENE 9 DNA transfection reagent (Roche, 06365787001) (Hosking et al., 2004, Duong et al., 2014). After 4-6 h transfection, cells were incubated with compounds in 0.5% FBS medium for another 24 h, before lysis and luciferase assay (Perkin Elmer, 6016711).

Chain of full-length mouse SOX18 (P43680 whole entry): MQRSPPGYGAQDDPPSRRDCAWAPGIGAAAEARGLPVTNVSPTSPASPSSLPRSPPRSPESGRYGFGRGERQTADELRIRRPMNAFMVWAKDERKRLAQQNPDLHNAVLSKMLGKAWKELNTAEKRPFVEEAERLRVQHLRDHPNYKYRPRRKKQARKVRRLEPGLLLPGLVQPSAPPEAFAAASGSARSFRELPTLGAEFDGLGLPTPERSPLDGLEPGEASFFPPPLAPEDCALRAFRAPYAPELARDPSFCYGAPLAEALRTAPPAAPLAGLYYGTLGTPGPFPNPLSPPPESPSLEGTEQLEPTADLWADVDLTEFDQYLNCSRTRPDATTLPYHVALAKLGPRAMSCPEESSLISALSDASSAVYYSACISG
Chain of SOX18 (P43680 whole entry): as above

For `CC(=O)Oc1ccccc1C(=O)O` [Aspirin], the “median latency (survival)” value [1] was 34 days.
For `O=C(O)c1cccnc1Nc1cccc(C(F)(F)F)c1` [Nifumic acid, niflumic acid, reference compound], the IC50 [2] was 375 ± 84 µM, the CC50 at 24 h [3] was > 200 µM and the IC50 [4] was 50.5 ± 7.6 µM.
Compound `Cc1ccc(Cl)c(Nc2ccccc2C(=O)O)c1Cl` [Meclofenamic acid, reference compound] has an IC50 [2] of 163 ± 17.7 µM and a CC50 at 24 h [3] of 16 ± 0.3 µM.
